What all share (type): binding
For one assay, the target named is T1, Itk^32K (Homo sapiens, UniProt Q08881).
T1 construct: Human Itk^171–620 (Itk^32K); GST (cleaved yes); made in house; host or cells: baculovirus-infected Sf9 insect cells
T1 sequence (Q08881 171-620): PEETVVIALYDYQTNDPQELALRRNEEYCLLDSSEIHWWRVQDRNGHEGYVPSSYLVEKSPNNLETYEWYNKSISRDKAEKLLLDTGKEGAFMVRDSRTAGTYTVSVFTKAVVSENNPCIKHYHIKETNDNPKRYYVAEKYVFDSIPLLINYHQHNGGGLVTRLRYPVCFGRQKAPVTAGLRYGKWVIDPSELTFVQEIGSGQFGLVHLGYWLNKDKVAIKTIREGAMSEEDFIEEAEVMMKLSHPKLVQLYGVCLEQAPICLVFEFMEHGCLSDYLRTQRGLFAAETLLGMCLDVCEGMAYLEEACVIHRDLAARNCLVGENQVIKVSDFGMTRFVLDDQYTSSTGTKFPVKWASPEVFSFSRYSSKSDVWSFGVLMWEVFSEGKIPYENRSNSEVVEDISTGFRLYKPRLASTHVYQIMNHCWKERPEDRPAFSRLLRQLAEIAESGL
In words: Differential scanning fluorimetry (thermal stability vs nucleotide concentration). As to conditions: same nucleotide concentrations, vs ATP or AMPPNP. How it is done: (§1) We noted that the thermal stability of Src^32K initially decreases at low concentrations of ATP, before rising again at higher concentrations. This was reproducible and correlates with autophosphorylation of Tyr416 during the course of the assay (Supplementary Fig. 4h). Thermal stabilities as a function of nucleotide concentration were measured by differential scanning fluorimetry (DSF). Samples contained 0.1 mg/ml protein in 50 mM Tris pH 7.5, 150 mM NaCl, 1 mM TCEP, and 5 mM MgCl2 with ADP, ATP, or AMPPNP concentrations ranging from 0–16 mM. Samples were measured in triplicate using a BioRad iQ™5 Multicolor Real-Time PCR Detection System. For detection of phosphorylated protein, samples were diluted and 1 ng and 15 ng were loaded to SDS-PAGE for Src and Itk proteins, respectively. Phosphorylation was measured by immunoblot.

For assay [1], the target named is T2, Src^32K (Mus musculus, UniProt P05480).
T2 construct: mouse Src^85-535 (Src^32K); GST (cleaved yes); made in house; host or cells: baculovirus-infected Sf9 insect cells, co-expressed with human Csk
The description is as above. Here is the method: as §1

Assay [2] concerns the target T2, Src^32K. In words: Competition nucleotide displacement assay (Mant-ADP, fluorescence anisotropy). Conditions: Src^32K (pY527); displacement of Mant-ADP. How it is done: Figure 1 Autoinhibited Itk and Src kinases preferentially bind ADP. (a) Schematic of constructs evaluated in this study. Itk^32K, Src^32K, and Src^32KΔC contain the conserved module of SH3, SH2, and kinase (^32K) domains. Src^32K was truncated by […] to remove its C-terminal tail (inclusive of the Y527 phosphorylation site), generating a construct we refer to as Src^32KΔC (ΔC-tail). (b) Competition nucleotide displacement assay for Itk^32K. 40 μM Itk^32K was incubated with 40 μM Mant-ADP until equilibrium was established. Unlabelled ADP or AMPPNP was titrated into the reaction and fluorescence anisotropy monitored. Comparison of the equilibrium inhibition constants (K i) gives an indication of the relative strength of nucleotide binding. […] (c) Competition nucleotide displacement assay for Src^32K. 40 μM tail-phosphorylated Src^32K (pY527) or doubly phosphorylated Src^32K pY416 (pY527) was incubated with 40 μM Mant-ADP until equilibrium was established. Unlabelled ADP or AMPPNP was titrated into the reaction and fluorescence anisotropy monitored. Solid lines correspond to Src^32K, dashed lines to Src^32K pY416. AMPPNP binds to Src^32K with 20-fold weaker affinity than ADP. […] (d) Omit map showing clear electron density for ADP and a single magnesium ion in the nucleotide-binding pocket of Src. The magnesium is coordinated by Asn391, Asp404, and the α- and β- phosphates of ADP. The β-phosphate is directly coordinated by the guanidinium side chain of Arg388. […]
Since the concentration of ATP in the cell is typically higher than ADP[33],[34], we performed nucleotide competition assays in order to determine which nucleotide is bound in vivo. We measured the concentrations of ADP or AMPPNP required to displace Mant-ADP. […]
The binding constants for ADP and AMPPNP were determined for Src and Itk proteins by fluorescence anisotropy, using 2′/3′-Mant-labelled nucleotides (Jena Bioscience). […] Unlabelled nucleotide was titrated into the reaction and fluorescence anisotropy monitored. The equilibrium inhibition constant for the unlabelled nucleotide was calculated from the fitted curve.

Entries after “also recorded” stand apart in the source; their conditions may differ.

T2 sequence (P05480 85-535): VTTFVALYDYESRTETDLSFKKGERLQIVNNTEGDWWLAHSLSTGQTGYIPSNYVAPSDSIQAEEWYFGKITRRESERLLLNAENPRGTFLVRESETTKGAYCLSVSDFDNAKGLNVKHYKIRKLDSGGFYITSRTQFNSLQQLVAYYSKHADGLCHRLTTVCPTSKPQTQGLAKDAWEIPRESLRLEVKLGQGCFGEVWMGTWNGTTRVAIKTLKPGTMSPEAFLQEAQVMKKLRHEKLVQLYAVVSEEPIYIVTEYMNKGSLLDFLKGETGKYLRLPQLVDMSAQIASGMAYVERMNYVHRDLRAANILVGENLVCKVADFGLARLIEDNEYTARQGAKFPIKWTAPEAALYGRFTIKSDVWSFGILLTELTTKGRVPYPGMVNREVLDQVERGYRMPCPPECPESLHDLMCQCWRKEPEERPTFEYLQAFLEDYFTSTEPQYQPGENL

As to `Nc1ncnc2c1ncn2[C@@H]1O[C@H](COP(=O)(O)OP(=O)(O)O)[C@@H](O)[C@H]1O` [ADP], the “thermal stabilisation compared with other nucleotides” value is listed as “to a greater extent; also recorded: higher thermal stability” on Itk^32K; “higher thermal stability with ADP than ATP” at Src^32K [1] (Src^32K pY416, vs ATP); “to a greater extent; also recorded: higher thermal stability” at Src^32K [1] (Src^32K, same nucleotide concentrations, vs ATP or AMPPNP). For the same compound, on Src^32K [2], the “fold difference in Ki, ADP preferred over AMPPNP” value amounted to 19 fold.
